Our source for the IC50 values is patent publication US10227323B2, “Glucosylceramide synthase inhibitors for the treatment of diseases” (BIOMARIN PHARMACEUTICAL INC., priority 2013, dated 2019).

Molecules are shown by their SMILES.

The test concerns the target T1, GCS (Canis lupus familiaris, UniProt A0A8I3MXG6).
T1 sequence (A0A8I3MXG6 1-394): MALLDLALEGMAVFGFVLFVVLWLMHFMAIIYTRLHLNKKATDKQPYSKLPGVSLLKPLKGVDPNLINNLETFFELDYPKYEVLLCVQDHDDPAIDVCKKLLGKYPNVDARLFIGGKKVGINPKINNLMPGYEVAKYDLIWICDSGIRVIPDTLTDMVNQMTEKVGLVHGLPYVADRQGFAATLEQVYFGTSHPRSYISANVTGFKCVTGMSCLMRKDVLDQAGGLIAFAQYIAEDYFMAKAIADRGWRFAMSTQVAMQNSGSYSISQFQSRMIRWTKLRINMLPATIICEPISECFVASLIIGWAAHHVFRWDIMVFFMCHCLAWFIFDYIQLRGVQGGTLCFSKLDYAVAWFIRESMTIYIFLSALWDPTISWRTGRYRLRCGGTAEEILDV
The experiment in a line: Assay 1: GCS Enzymatic Assay (MDCK cell lysate, C6-NBD-Ceramide, LC/MS). Type of test: biochemical, canine. Particulars: Table 2; data without asterisk; read-out: IC50 (nM) generated from Assay 1. An outline of the steps: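 LC/MS/MS measurement of glucosylceramide and NBD-ceramide after a 1 h, 37 °C reaction with 100 μM UDP-glucose and 10 μM C6-NBD-ceramide gave IC50s or percent inhibition.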
As usually defined, the IC50 is the concentration at which inhibition is half-maximal. Regarding `O=C(N[C@H](CN1CCCC1)[C@H](O)c1ccc(OC2CC2)c(Cl)c1)C(=O)c1ccc(-c2ccc(C(F)(F)F)cc2)cc1` [Example 274, N-((1R,2R)-1-(3-chloro-4-cyclopropoxyphenyl)-1-hydroxy-3-(pyrrolidin-1-yl)propan-2-yl)-2-oxo-2-(4′-(trifluoromethyl)-[1,1′-biphenyl]-4-yl)acetamide], the IC50 is less than 50 nM. Consider `O=C(N[C@H](CN1CCCC1)[C@H](O)c1cc(F)c2c(c1)OCCO2)C(=O)c1ccc(-c2ccc3c(cnn3C3CC3)c2)cc1` [Example 275, 2-(4-(1-cyclopropyl-1H-indazol-5-yl)phenyl)-N-((1R,2R)-1-(8-fluoro-2,3-dihydrobenzo[b][1,4]dioxin-6-yl)-1-hydroxy-3-(pyrrolidin-1-yl)propan-2-yl)-2-oxoacetamide], for which the IC50 was less than 50 nM. As for `O=C(N[C@H](CN1CCCC1)[C@H](O)c1cc(Cl)c2c(c1)OCCO2)C(=O)c1ccc(-c2ccc3c(cnn3C3CC3)c2)cc1` [Example 276, N-((1R,2R)-1-(8-chloro-2,3-dihydrobenzo[b][1,4]dioxin-6-yl)-1-hydroxy-3-(pyrrolidin-1-yl)propan-2-yl)-2-(4-(1-cyclopropyl-1H-indazol-5-yl)phenyl)-2-oxoacetamide], the IC50 is less than 50 nM. The figure for `O=C(N[C@H](CN1CCCC1)[C@H](O)c1ccc(OC2CC2)c(Cl)c1)C(=O)c1ccc(-c2ccc3c(cnn3C3CC3)c2)cc1` [Example 277, N-((1R,2R)-1-(3-chloro-4-cyclopropoxyphenyl)-1-hydroxy-3-(pyrrolidin-1-yl)propan-2-yl)-2-(4-(1-cyclopropyl-1H-indazol-5-yl)phenyl)-2-oxoacetamide] is less than 50 nM.

On to `O=C(N[C@H](CN1CCC1)[C@H](O)c1cc(F)c2c(c1)OCCO2)C(=O)c1ccc(-c2ccc3c(cnn3C3CC3)c2)cc1` [Example 278, N-((1R,2R)-3-(azetidin-1-yl)-1-(8-fluoro-2,3-dihydrobenzo[b][1,4]dioxin-6-yl)-1-hydroxypropan-2-yl)-2-(4-(1-cyclopropyl-1H-indazol-5-yl)phenyl)-2-oxoacetamide], for which the IC50 was less than 50 nM.

`Cn1ncc2cc(-c3ccc(C(=O)C(=O)N[C@H](CN4CCC4)[C@H](O)c4ccc(OC5CC5)c(Cl)c4)cc3)ccc21` [Example 279, N-((1R,2R)-3-(azetidin-1-yl)-1-(3-chloro-4-cyclopropoxyphenyl)-1-hydroxypropan-2-yl)-2-(4-(1-methyl-1H-indazol-5-yl)phenyl)-2-oxoacetamide]: the IC50 was less than 50 nM. Turning to `O=C(N[C@H](CN1CCCC1)[C@H](O)c1cc(F)c2c(c1)OCCO2)C(=O)c1ccc(-c2ccc3cnoc3c2)cc1` [Example 280, 2-(4-(benzo[d]isoxazol-6-yl)phenyl)-N-((1R,2R)-1-(8-fluoro-2,3-dihydrobenzo[b][1,4]dioxin-6-yl)-1-hydroxy-3-(pyrrolidin-1-yl)propan-2-yl)-2-oxoacetamide], the IC50 is less than 50 nM. `O=C(N[C@H](CN1CCCC1)[C@H](O)c1ccc(OC2CC2)c(Cl)c1)C(=O)c1ccc(-c2ccc3cnn(C4CC4)c3c2)cc1` [Example 281, N-((1R,2R)-1-(3-chloro-4-cyclopropoxyphenyl)-1-hydroxy-3-(pyrrolidin-1-yl)propan-2-yl)-2-(4-(1-cyclopropyl-1H-indazol-6-yl)phenyl)-2-oxoacetamide]: the IC50 was less than 50 nM. Turning to `O=C(N[C@H](CN1CCCC1)[C@H](O)c1cc(F)c2c(c1)OCCO2)C(=O)c1ccc(-c2ccc3cnn(C4CC4)c3c2)cc1` [Example 282, 2-(4-(1-cyclopropyl-1H-indazol-6-yl)phenyl)-N-((1R,2R)-1-(8-fluoro-2,3-dihydrobenzo[b][1,4]dioxin-6-yl)-1-hydroxy-3-(pyrrolidin-1-yl)propan-2-yl)-2-oxoacetamide], the IC50 was less than 50 nM.

Consider `O=C(N[C@H](CN1CCC1)[C@H](O)c1cc(F)c2c(c1)OCCO2)C(=O)c1ccc(-c2ccc3cnn(C4CC4)c3c2)cc1` [Example 283, N-((1R,2R)-3-(azetidin-1-yl)-1-(8-fluoro-2,3-dihydrobenzo[b][1,4]dioxin-6-yl)-1-hydroxypropan-2-yl)-2-(4-(1-cyclopropyl-1H-indazol-6-yl)phenyl)-2-oxoacetamide], for which the IC50 was less than 50 nM. On to `O=C(N[C@H](CN1CCCC1)[C@H](O)c1ccc(OC2CC2)c(Cl)c1)C(=O)c1ccc(-c2ccc3cn(C4CC4)nc3c2)cc1` [Example 284, N-((1R,2R)-1-(3-chloro-4-cyclopropoxyphenyl)-1-hydroxy-3-(pyrrolidin-1-yl)propan-2-yl)-2-(4-(2-cyclopropyl-2H-indazol-6-yl)phenyl)-2-oxoacetamide], for which the IC50 is less than 50 nM. In the case of `O=C(N[C@H](CN1CCC1)[C@H](O)c1cc(Cl)c2c(c1)OCCO2)C(=O)c1ccc(-c2ccc3c(cnn3C3CC3)c2)cc1` [Example 285, N-((1R,2R)-3-(azetidin-1-yl)-1-(8-chloro-2,3-dihydrobenzo[b][1,4]dioxin-6-yl)-1-hydroxypropan-2-yl)-2-(4-(1-cyclopropyl-1H-indazol-5-yl)phenyl)-2-oxoacetamide] it was less than 50 nM; in that of `O=C(N[C@H](CN1CCCC1)[C@H](O)c1cc2c(c(C(F)(F)F)c1)OCCO2)C(=O)c1ccc(-c2ccc(F)cc2)cc1` [Example 286, 2-(4′-fluoro-[1,1′-biphenyl]-4-yl)-N-((1R,2R)-1-hydroxy-3-(pyrrolidin-1-yl)-1-(8-(trifluoromethyl)-2,3-dihydrobenzo[b][1,4]dioxin-6-yl)propan-2-yl)-2-oxoacetamide], 50 to 5000 nM; in that of `O=C(N[C@H](CN1CCCC1)[C@H](O)c1ccc(OC2CC2)c(Cl)c1)C(=O)c1ccc(-c2ccc(F)cc2)nc1` [Example 287, N-((1R,2R)-1-(3-chloro-4-cyclopropoxyphenyl)-1-hydroxy-3-(pyrrolidin-1-yl)propan-2-yl)-2-(6-(4-fluorophenyl)pyridin-3-yl)-2-oxoacetamide], less than 50 nM. For the compound `O=C(N[C@H](CN1CCCC1)[C@H](O)c1ccc(OC2CC2)c(Cl)c1)C(=O)c1ccc2c(cnn2Cc2ccc(F)cc2)c1` [Example 288, N-((1R,2R)-1-(3-chloro-4-cyclopropoxyphenyl)-1-hydroxy-3-(pyrrolidin-1-yl)propan-2-yl)-2-(1-(4-fluorobenzyl)-1H-indazol-5-yl)-2-oxoacetamide], the IC50 is less than 50 nM.

Take `O=C(N[C@H](CN1CCCC1)[C@H](O)c1cc(F)c2c(c1)OCCO2)C(=O)c1ccc2c(cnn2Cc2ccc(F)cc2)c1` [Example 289, N-((1R,2R)-1-(8-fluoro-2,3-dihydrobenzo[b][1,4]dioxin-6-yl)-1-hydroxy-3-(pyrrolidin-1-yl)propan-2-yl)-2-(1-(4-fluorobenzyl)-1H-indazol-5-yl)-2-oxoacetamide]: the IC50 was less than 50 nM. For the compound `O=C(N[C@H](CN1CCCC1)[C@H](O)c1cc(F)c2c(c1)OCCO2)C(=O)c1ccc(-c2ccc3oncc3c2)cc1` [Example 290, 2-(4-(benzo[d]isoxazol-5-yl)phenyl)-N-((1R,2R)-1-(8-fluoro-2,3-dihydrobenzo[b][1,4]dioxin-6-yl)-1-hydroxy-3-(pyrrolidin-1-yl)propan-2-yl)-2-oxoacetamide], the IC50 is less than 50 nM. In the case of `CC(C)(C)Oc1ccc([C@@H](O)[C@@H](CN2CCCC2)NC(=O)C(=O)c2ccc(-c3ccc(F)cc3)cc2)cc1Cl` [Example 291, N-((1R,2R)-1-(4-(tert-butoxy)-3-chlorophenyl)-1-hydroxy-3-(pyrrolidin-1-yl)propan-2-yl)-2-(4′-fluoro-[1,1′-biphenyl]-4-yl)-2-oxoacetamide] it was 50 to 5000 nM. As for `O=C(N[C@H](CN1CCCC1)[C@H](O)c1ccc(OC2CC2)c(F)c1)C(=O)c1cc2ccc(Cl)cc2s1` [Example 292, 2-(6-chlorobenzo[b]thiophen-2-yl)-N-((1R,2R)-1-(4-cyclopropoxy-3-fluorophenyl)-1-hydroxy-3-(pyrrolidin-1-yl)propan-2-yl)-2-oxoacetamide], the IC50 was less than 50 nM. In the case of `CC(C)(C)c1ccc(-c2ccc(C(=O)C(=O)N[C@H](CN3CCC3)[C@H](O)c3cc(F)c4c(c3)OCCO4)cc2)cc1` [Example 293, N-((1R,2R)-3-(azetidin-1-yl)-1-(8-fluoro-2,3-dihydrobenzo[b][1,4]dioxin-6-yl)-1-hydroxypropan-2-yl)-2-(4′-(tert-butyl)-[1,1′-biphenyl]-4-yl)-2-oxoacetamide] it was less than 50 nM; in that of `CC(C)(C)c1ccc(-c2ccc(C(=O)C(=O)N[C@H](CN3CCCC3)[C@H](O)c3cc(F)c4c(c3)OCCO4)cc2)cc1` [Example 294, 2-(4′-(tert-butyl)-[1,1′-biphenyl]-4-yl)-N-((1R,2R)-1-(8-fluoro-2,3-dihydrobenzo[b][1,4]dioxin-6-yl)-1-hydroxy-3-(pyrrolidin-1-yl)propan-2-yl)-2-oxoacetamide], less than 50 nM. In the case of `Cc1cc(F)ccc1-c1ccc(C(=O)C(=O)N[C@H](CN2CCCC2)[C@H](O)c2ccc(OC3CC3)c(Cl)c2)cc1` [Example 295, N-((1R,2R)-1-(3-chloro-4-cyclopropoxyphenyl)-1-hydroxy-3-(pyrrolidin-1-yl)propan-2-yl)-2-(4′-fluoro-2′-methyl-[1,1′-biphenyl]-4-yl)-2-oxoacetamide] it was 50 to 5000 nM; in that of `O=C(N[C@H](CN1CCCC1)[C@H](O)c1ccc(OC2CC2)c(Cl)c1)C(=O)c1ccc(-c2ccc3scnc3c2)cc1` [Example 296, 2-(4-(benzo[d]thiazol-5-yl)phenyl)-N-((1R,2R)-1-(3-chloro-4-cyclopropoxyphenyl)-1-hydroxy-3-(pyrrolidin-1-yl)propan-2-yl)-2-oxoacetamide], less than 50 nM.
